Data reported in paper PMC10254235, “Design, Synthesis, and Anti-Cervical Cancer and Reversal of Tumor Multidrug Resistance Activity of Novel Nitrogen-Containing Heterocyclic Chalcone Derivatives” (Molecules, 2023).
Like-named read-outs stand apart in the source and are kept apart here.

Legend:
HeLa cells = test: MTT antiproliferative assay, HeLa cells; type: cell-based, human; conditions: Homo sapiens, 48 h
Description: (§1) HeLa and SiHa cell lines were obtained from the Procell Life Science Technology Co., Ltd. (Wuhan, China); H8 cell line was obtained from the Shanghai HonSun Biological Technology Co., Ltd. (Shanghai, China); HUVEC cell line was obtained from the Saibaikang (Shanghai) Biotechnology Co., Ltd. (Shanghai, China); HeLa/DDP cell line was obtained from the Guangzhou Jenniobio Biotechnology Co., Ltd. (Guangzhou, China). HeLa, SiHa, H8, and HeLa/DDP cells were cultured in DMEM medium (HyClone). The VEGF of 50 ng/mL was used as the promoter of the VEGFR-2 receptor on HUVEC cell membrane surfaces, and their inhibitory effects on VEGFR-2 were determined. All the mediums were supplemented with 10% FBS (HyClone, GE Healthcare, Australia). Cells were maintained at subconfluency at 37 °C in humidified air containing 5% CO2. The cells were monitored daily and maintained at 80% cell density. All compounds tested were dissolved in DMSO and then diluted by the culture medium before the treatment of cultured cells. Identification reports are available for all types of cell lines involved in this study.
(§2) The cytotoxicity of the target compounds were measured in vitro using the MTT assay. Cells grown in the logarithmic phase were counted and seeded in 96-well cell culture plates (5 × 10^3 cells per well) for 24 h to allow attachment of cells to the wall of the plate. […] Next, 20 μL of 5 mg.mL^−1 MTT solution was added to each well and cultured for 4 h. The old solution was discarded, replaced with 150 μL DMSO solution per well, and shaken for 10 min. The OD value was measured under 490 nm, and the inhibition rate was calculated. The nonlinear regression fitting of the cell growth rate was carried out using SPSS 23.0 software, and the IC50 of the compound was calculated. […] There were 6 compound holes in each group, and the experimental results were presented as the average of 3 experiments. A complete medium containing only cells was used as the blank control, whereas a complete medium without cells was the negative control group. Cisplatin and sorafenib were utilized as the positive control group, and the target compound was the experimental intervention group.

SiHa cells = test: MTT antiproliferative assay, SiHa cells; type: cell-based, human; conditions: Homo sapiens, 48 h, mean ± SD
Description: as §1, §2

H8 cells = test: MTT cytotoxicity assay, normal cervical epithelial H8 cells; type: cell-based, human; conditions: Homo sapiens, 48 h, mean ± SD
Description: as §1, §2

HUVEC cells = test: In vitro HUVEC inhibitory assay (MTT); type: cell-based; conditions: Homo sapiens, 48 h, ± SD
Description: as §1, §2
After incubation for 24 h, the cell was collected using centrifugation and washed twice using PBS chilled to 0 °C. Then, the cells were homogenized in RIPA lysis buffer and 1% PMSF, 1% mixed phosphatase inhibitor (Solarbio, Beijing, China). The lysates were incubated on ice for 30 min, intermittently vortexed every 5 min, and centrifuged at 12,000 rpm for 20 min to harvest the supernatants.

VEGFR-2 [1] = molecular target: T1, VEGFR-2 (Homo sapiens, UniProt P35968); test: VEGFR-2 inhibition test (human p-VEGFR-2 ELISA in HeLa cells); type: cell-based; conditions: ± SD, read-out: 48h IC50 VEGFR-2 inhibitory effect
T1 construct: endogenous in cells; host or cells: HeLa cells
T1 sequence (P35968 20-1356): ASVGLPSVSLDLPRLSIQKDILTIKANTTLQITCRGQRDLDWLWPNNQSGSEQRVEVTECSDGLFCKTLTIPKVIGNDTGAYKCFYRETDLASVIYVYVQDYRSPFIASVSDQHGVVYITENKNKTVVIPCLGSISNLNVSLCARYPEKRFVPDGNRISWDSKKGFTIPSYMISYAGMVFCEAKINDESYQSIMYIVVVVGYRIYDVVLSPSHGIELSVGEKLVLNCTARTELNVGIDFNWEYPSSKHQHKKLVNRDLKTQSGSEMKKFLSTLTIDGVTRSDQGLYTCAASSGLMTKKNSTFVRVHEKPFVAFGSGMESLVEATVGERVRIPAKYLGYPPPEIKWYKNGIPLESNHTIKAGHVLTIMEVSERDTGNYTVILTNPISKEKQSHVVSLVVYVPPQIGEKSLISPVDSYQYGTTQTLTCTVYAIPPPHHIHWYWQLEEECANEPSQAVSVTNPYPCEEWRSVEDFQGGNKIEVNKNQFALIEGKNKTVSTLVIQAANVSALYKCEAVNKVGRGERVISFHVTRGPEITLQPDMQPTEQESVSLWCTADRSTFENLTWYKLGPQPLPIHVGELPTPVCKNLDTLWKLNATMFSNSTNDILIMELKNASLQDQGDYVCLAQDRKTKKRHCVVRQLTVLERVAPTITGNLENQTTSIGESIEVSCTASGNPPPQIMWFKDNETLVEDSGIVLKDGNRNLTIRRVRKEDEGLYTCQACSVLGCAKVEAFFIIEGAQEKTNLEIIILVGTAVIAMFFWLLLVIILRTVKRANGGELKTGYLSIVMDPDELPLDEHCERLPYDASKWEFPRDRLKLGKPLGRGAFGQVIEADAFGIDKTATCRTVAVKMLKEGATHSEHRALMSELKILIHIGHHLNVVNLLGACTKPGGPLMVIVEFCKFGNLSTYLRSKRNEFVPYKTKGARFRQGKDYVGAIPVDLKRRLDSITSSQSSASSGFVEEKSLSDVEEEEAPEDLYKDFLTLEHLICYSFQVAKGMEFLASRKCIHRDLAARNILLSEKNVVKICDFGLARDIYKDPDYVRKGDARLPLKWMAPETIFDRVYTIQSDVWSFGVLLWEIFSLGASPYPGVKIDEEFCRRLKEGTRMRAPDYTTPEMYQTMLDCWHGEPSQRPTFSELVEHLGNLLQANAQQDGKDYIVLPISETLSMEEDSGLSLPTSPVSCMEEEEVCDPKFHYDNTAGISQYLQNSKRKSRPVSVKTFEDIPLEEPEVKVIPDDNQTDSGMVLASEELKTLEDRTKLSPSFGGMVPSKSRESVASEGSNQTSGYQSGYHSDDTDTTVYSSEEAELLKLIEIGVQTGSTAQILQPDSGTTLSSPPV
Description: Specimens, standards, and HRP-labeled detection antibodies were added sequentially to the pre-covered microtiter wells containing phosphorylated vascular endothelial growth factor receptor 2 (p-VEGFR2) antibodies, warmed, and washed thoroughly. The substrate TMB was added for color development. This substrate is converted to blue using peroxidase catalysis to a final yellow color due to the action of acid. […] Curve fitting was performed using SPSS 23.0 software to calculate IC50.

HeLa/DDP cells = test: MTT assay, cisplatin-resistant HeLa/DDP cells; type: cell-based, human; conditions: single agent; for RI (resistance index): HeLa/DDP versus HeLa; for IC50: Homo sapiens, cisplatin-resistant HeLa/DDP cells, 48 h, read-out: 48h IC50 HeLa/DDP
Description: The cytotoxicity of the target compounds were measured in vitro using the MTT assay. Cells grown in the logarithmic phase were counted and seeded in 96-well cell culture plates (5 × 10^3 cells per well) for 24 h to allow attachment of cells to the wall of the plate. […] Next, 20 μL of 5 mg.mL^−1 MTT solution was added to each well and cultured for 4 h. The old solution was discarded, replaced with 150 μL DMSO solution per well, and shaken for 10 min. The OD value was measured under 490 nm, and the inhibition rate was calculated. The nonlinear regression fitting of the cell growth rate was carried out using SPSS 23.0 software, and the IC50 of the compound was calculated. […] A complete medium containing only cells was used as the blank control, whereas a complete medium without cells was the negative control group.
To reduce the adverse reactions caused by the fixation of drug resistance reversal agents, the concentration that reduces the proliferation rate of tumor cells by less than 10% was selected.

VEGFR-2 [2] = conditions: read-out: IC50 against VEGFR-2; cited from earlier work
HepG2 cells = conditions: cited from earlier work
MCF-7 cells = conditions: cytotoxic effect; cited from earlier work
PC-3 cells = conditions: cytotoxic effect; cited from earlier work
[3] = MTT, mean ± SD, read-out: 48h IC50 HeLa
[4] = single agent, read-out: 48h IC50 HeLa (Table 4)

Compound | IC50 (HeLa cells; [3]) | IC50 (HeLa cells; [4]) | IC50 (SiHa cells) | IC50 (H8 cells) | IC50 (HUVEC cells) | IC50 (VEGFR-2 [1]) | RI (resistance index) (HeLa/DDP cells) | IC50 (HeLa/DDP cells) | IC50 (VEGFR-2 [2]) | also measured
COc1cc(O)c(C(=O)/C=C/c2ccc(CN3CCC(C)CC3)cc2)cc1CN1CCCC1 [6k, (E)-1-(2-hydroxy-4-methoxy-5-(pyrrolidin-1-ylmethyl)phenyl)-3-(4-((4-methylpiperidin-1-yl)methyl)phenyl)prop-2-en-1-one] | 15.22 ± 0.08 µM | 15.22 ± 0.08 µM | 24.83 ± 0.17 µM | 30.1 ± 0.44 µM | 20.2 ± 1.19 µM | 1.67 ± 0.18 µM | 1.13 | 17.3 ± 2.07 µM | – | –
O=C(/C=C/c1ccccc1)c1ccccc1 [Chalcone] | 74 ± 4.48 µM | 74 ± 4.48 µM | 66.5 ± 2.88 µM | 77.7 ± 6.85 µM | 77.5 ± 4.2 µM | > 20 µM | 1.23 | 91 ± 6.22 µM | – | –
CNC(=O)c1cc(Oc2ccc(C(=O)/C=C/c3ccccc3)cc2)ccn1 [compound 9] | – | – | – | – | – | – | – | – | 1.1 µM | –
CNC(=O)c1cc(Oc2ccc(C(=O)/C=C/c3cc(OC)c(OC)c(OC)c3)cc2)ccn1 [compound 8] | – | – | – | – | – | – | – | – | 3.2 µM | cytotoxic activity relative to sorafenib (HepG2 cells; HepG2, MCF-7 and PC-3 cells): 1.03–6.14 times; IC50 (HepG2 cells; cytotoxic effect, HepG2 cells): 0.56 ± 0.83 µM; IC50 (MCF-7 cells): 3.88 ± 1.03 µM; IC50 (PC-3 cells): 3.15 ± 0.81 µM
COc1cc(O)c(C(=O)/C=C/c2ccc(CN3CCC(C)CC3)cc2)cc1CN1CCOCC1 [6o, (E)-1-(2-hydroxy-4-methoxy-5-(morpholinomethyl)phenyl)-3-(4-((4-methylpiperidin-1-yl)methyl)phenyl)prop-2-en-1-one] | 65.8 ± 1.36 µM | – | 63.7 ± 2.18 µM | 80 ± 8.92 µM | – | – | – | – | – | melting point: 104.2 to 105.4 °C
CNC(=O)c1cc(Oc2ccc(C(=O)/C=C/c3cccc(Br)c3)cc2)ccn1 [compound 7] | – | – | – | – | – | – | – | – | 0.72 µM | –
